Measurements from ChEMBL document CHEMBL1201862, “PubChem BioAssay data set” (2004).
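96-well plates; 48 h exposure; 5 concentrations. Endpoints by linear interpolation between flanking doses. Not reached: highest tested concentration assigned. GI50: concentration for 50% inhibition of growth.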 Activity calls are given as the source filed them. Cut-off read from the data, not from the text of the source: active = GI50 up to about 1.1 µM and inactive = higher.

Assays:
Assay in all cases: NCI-60 cell line screen, 48 h
786-0 = test system: 786-0
A549 = test system: A549
ACHN = test system: ACHN
CCRF-CEM = test system: CCRF-CEM
COLO 205 = test system: COLO 205
DLD-1 = test system: DLD-1
DMS-273 = test system: DMS-273
EKVX = test system: EKVX
HCC 2998 = test system: HCC 2998
HCT-116 = test system: HCT-116
HCT-15 = test system: HCT-15
HL-60 = test system: HL-60
HOP-62 = test system: HOP-62
HOP-92 = test system: HOP-92
HT-29 = test system: HT-29
IGROV-1 = test system: IGROV-1
K562 = test system: K562
KM-20L2 = test system: KM-20L2
KM12 = test system: KM12
LOX IMVI = test system: LOX IMVI
LXFL 529 = test system: LXFL 529
M14 = test system: M14
M19-MEL = test system: M19-MEL
MOLT-4 = test system: MOLT-4
Malme-3M = test system: Malme-3M
NCI-H226 = test system: NCI-H226
NCI-H23 = test system: NCI-H23
NCI-H460 = test system: NCI-H460
NCI-H522 = test system: NCI-H522
OVCAR-3 = test system: OVCAR-3
OVCAR-4 = test system: OVCAR-4
OVCAR-8 = test system: OVCAR-8
RXF 393 = test system: RXF 393
SF-268 = test system: SF-268
SF-295 = test system: SF-295
SF-539 = test system: SF-539
SK-MEL-28 = test system: SK-MEL-28
SK-MEL-2 = test system: SK-MEL-2
SK-MEL-5 = test system: SK-MEL-5
SK-OV-3 = test system: SK-OV-3
SN12C = test system: SN12C
SNB-19 = test system: SNB-19
SNB-75 = test system: SNB-75
SNB-78 = test system: SNB-78
SR = test system: SR
SW-620 = test system: SW-620
TK-10 = test system: TK-10
U-251 = test system: U-251
UACC-257 = test system: UACC-257
UACC-62 = test system: UACC-62
UO-31 = test system: UO-31
A498 = test system: A498
BT-549 = test system: BT-549
CAKI-1 = test system: CAKI-1
DU-145 = test system: DU-145
Hs-578T = test system: Hs-578T
MCF7 = test system: MCF7
MDA-MB-231 = test system: MDA-MB-231
MDA-MB-435 = test system: MDA-MB-435
MDA-N = test system: MDA-N
NCI/ADR-RES = test system: NCI/ADR-RES
OVCAR-5 = test system: OVCAR-5
PC-3 = test system: PC-3
RPMI-8226 = test system: RPMI-8226
T47D = test system: T47D
HOP-18 = test system: HOP-18

Measured: GI50

CCC(CC)n1c(C)nc2c1C(=O)c1ccccc1C2=O
9.18 µM: HCT-15
inactive: 786-0 57.1 µM | A549 35.3 µM | ACHN 41.4 µM | CCRF-CEM 42.6 µM | COLO 205 26.9 µM | DLD-1 24.3 µM | DMS-273 23.1 µM | EKVX 70.5 µM | HCC 2998 77.4 µM | HCT-116 19.3 µM | HL-60 10.7 µM | HOP-62 33.4 µM | HOP-92 22.5 µM | HT-29 33.2 µM | IGROV-1 71.9 µM | K562 21.1 µM | KM-20L2 39.4 µM | KM12 36.9 µM | LOX IMVI 19.5 µM | LXFL 529 19.5 µM | M14 63.1 µM | M19-MEL 14.9 µM | MOLT-4 41.2 µM | Malme-3M 26.1 µM | NCI-H226 72.8 µM | NCI-H23 21.5 µM | NCI-H460 20.7 µM | NCI-H522 48.1 µM | OVCAR-3 26 µM | OVCAR-4 40.7 µM | OVCAR-8 40.5 µM | RXF 393 35.2 µM | SF-268 49.2 µM | SF-295 39.4 µM | SF-539 34 µM | SK-MEL-28 49.3 µM | SK-MEL-2 27.6 µM | SK-MEL-5 15.7 µM | SK-OV-3 > 100 µM | SN12C 46.3 µM | SNB-19 71.1 µM | SNB-75 20.6 µM | SNB-78 49.7 µM | SR 25.8 µM | SW-620 52.2 µM | TK-10 35.9 µM | U-251 36.5 µM | UACC-257 24 µM | UACC-62 10.3 µM | UO-31 19.5 µM

O=Cc1cc(O)ccc1Br
3.15 µM: HCT-15
inactive: 786-0 22.6 µM | A498 > 100 µM | A549 > 100 µM | ACHN 19.8 µM | BT-549 11.6 µM | CAKI-1 20 µM | CCRF-CEM 3.08 µM | COLO 205 41.7 µM | DU-145 44.7 µM | EKVX 65.6 µM | HCC 2998 11.8 µM | HCT-116 3.31 µM | HL-60 1.88 µM | HOP-62 9.71 µM | HOP-92 19 µM | HT-29 18.2 µM | Hs-578T 9.31 µM | IGROV-1 28.1 µM | K562 2.86 µM | KM12 23.5 µM | LOX IMVI 5.46 µM | M14 5.45 µM | MCF7 4.41 µM | MDA-MB-231 36.1 µM | MDA-MB-435 2.5 µM | MDA-N 3.1 µM | MOLT-4 4.15 µM | Malme-3M 18.5 µM | NCI-H226 28.8 µM | NCI-H23 21.7 µM | NCI-H460 19.7 µM | NCI-H522 38.4 µM | NCI/ADR-RES 12.1 µM | OVCAR-3 6.3 µM | OVCAR-4 15 µM | OVCAR-5 32.1 µM | OVCAR-8 5.05 µM | PC-3 13.2 µM | RPMI-8226 2.81 µM | RXF 393 27.4 µM | SF-268 9.93 µM | SF-295 7 µM | SF-539 4.3 µM | SK-MEL-28 15 µM | SK-MEL-2 44.4 µM | SK-MEL-5 17.3 µM | SK-OV-3 34.7 µM | SN12C 19.8 µM | SNB-19 12.5 µM | SNB-75 14.4 µM | SR 2.63 µM | SW-620 4.78 µM | T47D 42.1 µM | TK-10 11.3 µM | U-251 3.74 µM | UACC-257 41.5 µM | UACC-62 6.9 µM | UO-31 19.5 µM

CCOC(=O)/C(C#N)=C1/Sc2c(ncn(/N=C/c3ccc(OC)cc3)c2=O)N1c1ccccc1
inactive: A549 67.8 µM | ACHN > 100 µM | CCRF-CEM > 100 µM | COLO 205 > 100 µM | DLD-1 > 100 µM | HCC 2998 > 100 µM | HCT-116 > 100 µM | HL-60 > 100 µM | HOP-62 22.2 µM | HOP-92 13.9 µM | HT-29 70.6 µM | IGROV-1 56.2 µM | K562 62.5 µM | KM12 > 100 µM | LXFL 529 41.1 µM | M19-MEL 74 µM | MOLT-4 > 100 µM | NCI-H226 36.1 µM | NCI-H23 54.8 µM | NCI-H460 28.9 µM | NCI-H522 25.4 µM | OVCAR-3 41.4 µM | OVCAR-8 40.6 µM | RPMI-8226 > 100 µM | SF-268 14.8 µM | SF-295 19.1 µM | SF-539 14.8 µM | SK-MEL-28 28.7 µM | SK-MEL-5 > 100 µM | SK-OV-3 40.4 µM | SNB-19 33.5 µM | SR > 100 µM | SW-620 > 100 µM | TK-10 50.2 µM | U-251 37.4 µM | UACC-257 29.2 µM | UACC-62 31.1 µM | UO-31 > 100 µM

Cc1csc(CCC(N)C(=O)O)n1 (stereo not drawn)
inactive: 786-0 > 100 µM | A549 > 100 µM | ACHN > 100 µM | CAKI-1 > 100 µM | CCRF-CEM > 100 µM | COLO 205 > 100 µM | DLD-1 > 100 µM | DMS-273 > 100 µM | EKVX > 100 µM | HCC 2998 > 100 µM | HCT-116 > 100 µM | HOP-18 > 100 µM | HOP-92 > 100 µM | HT-29 > 100 µM | IGROV-1 > 100 µM | K562 > 100 µM | KM12 > 100 µM | LOX IMVI > 100 µM | LXFL 529 > 100 µM | M14 > 100 µM | M19-MEL > 100 µM | MOLT-4 > 100 µM | Malme-3M > 100 µM | NCI-H226 > 100 µM | NCI-H23 > 100 µM | NCI-H460 > 100 µM | NCI-H522 > 100 µM | OVCAR-3 > 100 µM | OVCAR-8 > 100 µM | RPMI-8226 > 100 µM | RXF 393 > 100 µM | SF-295 > 100 µM | SF-539 > 100 µM | SK-MEL-28 > 100 µM | SK-MEL-5 > 100 µM | SK-OV-3 > 100 µM | SN12C > 100 µM | SNB-75 > 100 µM | SNB-78 > 100 µM | SW-620 > 100 µM | TK-10 > 100 µM | U-251 > 100 µM | UACC-257 > 100 µM | UACC-62 > 100 µM | UO-31 > 100 µM
> 100 µM: HCT-15

CSC1(SC)N2Cc3ccccc3N=C2C1(c1ccccc1)c1ccccc1
inactive: 786-0 22.5 µM | A498 15.7 µM | A549 13.8 µM | ACHN 14.1 µM | BT-549 > 50.6 µM | CAKI-1 11 µM | CCRF-CEM 8.73 µM | COLO 205 5.89 µM | DU-145 19.5 µM | EKVX 6.67 µM | HCC 2998 2.6 µM | HCT-116 6.18 µM | HL-60 6.08 µM | HOP-62 > 44.9 µM | HOP-92 4.12 µM | HT-29 11.6 µM | Hs-578T 29 µM | IGROV-1 24.2 µM | K562 10.1 µM | KM12 7.73 µM | LOX IMVI 12.3 µM | M14 12.2 µM | MCF7 8.17 µM | MDA-MB-231 26.7 µM | MDA-MB-435 4.01 µM | MDA-N 12.5 µM | MOLT-4 2.77 µM | Malme-3M 8.22 µM | NCI-H226 > 100 µM | NCI-H23 16 µM | NCI-H460 7.48 µM | NCI-H522 5.96 µM | NCI/ADR-RES 16.4 µM | OVCAR-3 6.4 µM | OVCAR-4 10.1 µM | OVCAR-5 > 40.1 µM | OVCAR-8 29.2 µM | PC-3 12 µM | RPMI-8226 5.38 µM | RXF 393 9.82 µM | SF-268 21.3 µM | SF-295 11.1 µM | SF-539 12.8 µM | SK-MEL-28 38.1 µM | SK-MEL-2 12.7 µM | SK-MEL-5 11.4 µM | SK-OV-3 > 54.5 µM | SN12C 20.5 µM | SNB-19 > 48.3 µM | SNB-75 > 100 µM | SR 1.95 µM | SW-620 13 µM | T47D 4.51 µM | TK-10 > 35.1 µM | U-251 15.1 µM | UACC-257 13 µM | UACC-62 12.6 µM | UO-31 24.8 µM
12.1 µM: HCT-15
